Measurements from ChEMBL document CHEMBL1147302, “Isolation and characterization of an antimalarial agent of the neem tree Azadirachta indica” (J Nat Prod, 1989).

Legend:
Plasmodium falciparum [1] = assay: Antimalarial activity against Plasmodium falciparum after 48 hrs by [3H]hypoxanthine uptake; format: functional, organism-based
Plasmodium falciparum [2] = assay: Antimalarial activity against Plasmodium falciparum after 96 hrs by [3H]hypoxanthine uptake; format: functional, organism-based

IC50 (Plasmodium falciparum [1]): 1000 nM
IC50 (Plasmodium falciparum [2]): 300 nM
Structure (SMILES): CC(=O)O[C@@H]1C[C@H]2C(C)(C)C(=O)C=C[C@]2(C)[C@H]2CC[C@@]3(C)[C@H](c4ccoc4)OC(=O)[C@H]4O[C@]43[C@@]21C [GEDUNIN]
